Laboratory results reported in paper PMC6327044, “A chemical biology screen identifies a vulnerability of neuroendocrine cancer cells to SQLE inhibition” (Nature Communications, 2019).

Legend:
Assay in all cases: cells
Parameters in all cases: species or system panel of 482 human cancer cell lines; ATPLite luminescence growth inhibition after treatment, nine-point dilution curve, 482 cancer cell lines, 384-well
Conditions in all cases: 72 h, recommended growth medium
[1] = test system: CAL27_UPPER_AERODIGESTIVE_TRACT
Method: (§1) Cells were seeded in recommended growth media in black 384-well tissue culture treated plates at 500 cells per well. Cells were equilibrated in assay plates via centrifugation and placed in incubators for 24 h before treatment. […] Treated assay plates were incubated with compounds for 72 h and subsequently were developed for endpoint analysis using ATPLite. Each compound was assessed using a nine-point dilution curve. Cells were defined as sensitive to a given compound based on GI75 < 2 μM with manual quality control of curve fit. GI75 is defined as a drug concentration that causes a 75% reduction in assay readout relative to dimethyl sulfoxide (DMSO)-treated controls. To identify novel cancer vulnerabilities, we screened a panel of 482 cell lines with a diverse set of metabolic inhibitors. […] Given that SCLC is thought to arise from neuroendocrine cells in the lung[9], we tested the NB-598 sensitivity in a panel of 42 SCLC cell lines. We calculated a quantitative metric of sensitivity for each cell line based on the area under the curve (AUC) of the mu/mu.max curve to more accurately capture the potency and extent of NB-598 effects. […] We categorized the SCLC cell lines as sensitive (5/42), moderate (11/42), and insensitive (26/42) (Fig. 1c and Supplementary Data 2) and focused all subsequent efforts on this indication. […] To further understand the patterns of sensitivity, we conducted RNA sequencing (RNA-Seq; Supplementary Data 3) and proteomic (Supplementary Data 4) characterization of the SCLC panel to identify unbiased expression signatures associated with enhanced NB-598 response (Supplementary Fig. 1 and Supplementary Fig. 2). Given the growing understanding that SCLC tumors can be further subdivided based on the status of lineage-defining transcription factors, ASLC1 and NEUROD1, we specifically investigated NB-598 response as the function of ASCL1 and NEUROD1 expression levels. […] To further dissect the NB-598 response within the ASCL1-high/NEUROD-low subset of 25 cell lines, we identified RNA-Seq and proteomics expression signatures associated with NB

GSS_STOMACH = test system: GSS_STOMACH
Method: as §1

HCC70_BREAST = test system: HCC70_BREAST
Method: as §1

HEC1A_ENDOMETRIUM = test system: HEC1A_ENDOMETRIUM
Method: as §1

[2] = test system: JVM13_HAEMATOPOIETIC_AND_LYMPHOID_TISSUE
Method: as §1

KYSE510_OESOPHAGUS = test system: KYSE510_OESOPHAGUS
Method: as §1

MFE280_ENDOMETRIUM = test system: MFE280_ENDOMETRIUM
Method: as §1

NCIH1435_LUNG = test system: NCIH1435_LUNG
Method: as §1

NCIH1581_LUNG = test system: NCIH1581_LUNG
Method: as §1

NCIH1666_LUNG = test system: NCIH1666_LUNG
Method: as §1

NCIH2106_LUNG = test system: NCIH2106_LUNG
Method: as §1

SKBR3_BREAST = test system: SKBR3_BREAST
Method: as §1

[3] = test system: SNU1066_UPPER_AERODIGESTIVE_TRACT
Method: as §1

SNU308_BILIARY_TRACT = test system: SNU308_BILIARY_TRACT
Method: as §1

SNU601_STOMACH = test system: SNU601_STOMACH
Method: as §1

[4] = test system: SUDHL2EPST_HAEMATOPOIETIC_AND_LYMPHOID_TISSUE
Method: as §1

[5] = test system: YD10B_UPPER_AERODIGESTIVE_TRACT
Method: as §1

GI50 (SKBR3_BREAST): 7.19 µM | GI50 [3]: 121 µM | GI50 (SNU308_BILIARY_TRACT): 2.92 µM | GI50 (SNU601_STOMACH): 5.4 µM | GI50 [4]: 0.0257 µM
Compound: CCN(C/C=C/C#CC(C)(C)C)Cc1cccc(OCc2cc(-c3ccsc3)cs2)c1 [NB-598]
GI50 [1]: 12.4 µM | GI50 (GSS_STOMACH): 12.3 µM | GI50 (HCC70_BREAST): 16.3 µM | GI50 (HEC1A_ENDOMETRIUM): 12.6 µM | GI50 [2]: 9.61 µM | GI50 (KYSE510_OESOPHAGUS): 0.0731 µM | GI50 (MFE280_ENDOMETRIUM): 0.0169 µM | GI50 (NCIH1435_LUNG): 0.00311 µM | GI50 (NCIH1581_LUNG): 0.0124 µM | GI50 (NCIH1666_LUNG): 0.0249 µM | GI50 (NCIH2106_LUNG): 0.0121 µM | GI50 [5]: 0.0714 µM
